Data reported in PMC10266688 (PLOS ONE, 2023).
Like-named read-outs stand apart in the source and are kept apart here.

Tests used:
[1] = tested on: HMW polyUb proteins in ES2 cells; assay: Western blot for polyubiquitinated proteins; settings: by 12 h
[2] = tested on: proteasome (4UbFL reporter); assay: 4UbFL reporter in ES2-4UbFL tumor and leg muscle of nude mice; assay type: in vivo, mouse; settings: single IP dose Up284 20mg/kg or bortezomib 0.75 mg/kg, 4 h and 24 h
Protocol: A-C) Female nude mice were inoculated IP with ES2-luc cells, a human ovarian cancer line expressing luciferase. […] The IP tumor tissue and electroporated normal muscle tissue, being spatially distinct, were identified with separate regions of interest (ROI) after simultaneous imaging with IVIS.
Briefly mice were inoculated IP with ES2 cells stably expressing 4UbFL. After 48 h, the mice were injected with luciferin, imaged and then randomized into 3 groups (n = 5/group). Next, leg muscle of each mouse was electroporated with 4UbFL plasmid (considered as normal tissue). After 48 h (i.e. day 4) the mice were re-imaged and basal bioluminescence (0 h) was separately measured in the leg muscle and peritoneal ROIs.

[3] = Single dose pharmacokinetics in CD1 mice (IV, IP, PO), plasma LC-MS/MS; assay type: in vivo, mouse; settings: for Plasma concentration: individual (Group A)
Protocol: For single dose pharmacokinetic studies, plasma samples (40 μL) were mixed with 200 μL of a water-methanol mixture 1:9, v/v containing the internal standard elacridar at 400 ng/mL. After mixing by pipetting and centrifuging for 4 min at 6000 rpm, 1 μL of each supernatant was injected into LC-MS/MS system. […] Mobile phase A was acetonitrile/water (5:95, v/v) containing 1% formic acid, and mobile phase B was acetonitrile containing 0.1% formic acid. The gradient was initiated with mobile phase B at 15% and was held at 15% for 0.9 minutes with a flow rate of 0.4 mL/min, then increased to 100% and held for 0.1 minutes, and finally returned back to 15% mobile phase B and allowed to equilibrate until 2.2 minutes. […] The lower limit of quantitation (LLOQ) in plasma was 50 ng/mL.
Pharmacokinetic parameters were calculated from mean concentration-time data using non-compartmental methods in Phoenix WinNonlin version 8.3 (Certara, Princeton, NJ). Concentrations after the time 0 sample that were below the LLOQ were imputed with ½ that value. Any concentration that was determined to be an outlier by the Grubbs’s outlier test were excluded from analysis. The maximum plasma concentration (Cmax) and time to Cmax (Tmax) were the observed values. The AUClast was calculated using the log-linear trapezoidal method. AUC was extrapolated to infinity (AUCINF) by dividing the last quantifiable concentration by the terminal disposition rate constant (λz). The λz was determined from at least 3 points on the slope of the terminal phase of the concentration-time profile. The terminal half-life (T1/2) was determined by dividing 0.693 by λz. Apparent clearance (Cl/F) was calculated by dividing the dose administered by AUCINF. Apparent volume of distribution (V/F) was calculated by dividing Cl/F by λz. […] The oral and IP bioavailability was calculated as: F(%)={DoseIV×AUC(0−∞)PO/DosePO×AUC(0−∞)IV}.100%
The Method of Bailer was used to estimate the variance of AUC given the calculated variance of the mean concentration at each time point. […]. In all cases, p < 0.05 was considered statistically significant.
This was followed by a more detailed pharmacokinetic study, in which CD1 (n = 4; […]. Nine time points for IV and IP (5, 15, 30, 60, 120, 240, 360, 480 and 1440 min) and eight time points for PO (15, 30, 60,120, 240, 360, 480 and 1440 min) administration were set for this pharmacokinetic study. Each of the time point treatment group included 4 animals. Mice were injected IP with 2,2,2-tribromoethanol (150 mg/kg) prior to drawing the blood in microtainers containing K3EDTA via retro-orbital bleeding. Blood samples were centrifuged 10 min at 3000 rpm. Brain samples (right lobe) were collected and weighted. All samples were immediately processed, flash-frozen and stored at -70°C until subsequent analysis. […] Pharmacokinetic parameters were calculated from mean concentration-time data using non-compartmental methods in Phoenix WinNonlin version 8.3 (Certara, Princeton, NJ)). Using the Method of Bailer, there was no different in dose normalized AUClast by any route of administration (S17 Table).

[4] = CD-1, mouse, in vivo, ip, 20 mg/kg, Plasma concentration
[5] = CD-1, mouse, in vivo, ip, 20 mg/kg, Plasma concentration, Mean
[6] = male CD1 mice, IV 5 mg/kg, 0 min
[7] = male, CD1, mouse, in vivo, ip, 20 mg/kg
[8] = male, CD1, mouse, in vivo, iv, 5 mg/kg
[9] = male, CD1, mouse, in vivo, iv, 5 mg/kg, Plasma concentration
[10] = male, CD1, mouse, in vivo, iv, 5 mg/kg, Plasma concentration, Mean
[11] = male, CD1, mouse, in vivo, po, 50 mg/kg
[12] = male, CD-1, mouse, in vivo, po, 50 mg/kg, Plasma concentration
[13] = male, CD-1, mouse, in vivo, po, 50 mg/kg, Plasma concentration, Mean

N#Cc1ccc(/C=C2/C(=O)/C(=C/c3ccc(C#N)cc3)C23CCNCC3)cc1 [Up284]
accumulation of HMW polyUb proteins [1]: profound accumulation
4UbFL bioluminescence signal in muscle tissue vs tumor [2]: similarly enhanced the bioluminescence signal
time to clear from the bloodstream to a low steady state ([3]; CD1, mouse, in vivo): 2 to 4 h
concentration at 15 min [3, 4]: 2480 ng/mL
concentration at 60 min [3, 4]: 2400 ng/mL
concentration at 120 min [3, 4]: 1950 ng/mL
concentration at 240 min [3, 4]: 1540 ng/mL
concentration at 1440 min [3, 4]: 750 ng/mL
concentration at 5 min [3, 5]: 899 ng/mL
concentration at 15 min [3, 5]: 2180 ng/mL
concentration at 30 min [3, 5]: 2460 ng/mL
concentration at 60 min [3, 5]: 2400 ng/mL
concentration at 120 min [3, 5]: 2140 ng/mL
concentration at 240 min [3, 5]: 1740 ng/mL
concentration at 360 min [3, 5]: 789 ng/mL
concentration at 480 min [3, 5]: 731 ng/mL
concentration at 1440 min [3, 5]: 610 ng/mL
Plasma concentration, Mean ([3]; CD-1 mice, IP 20 mg/kg, 0 min): BQL
Plasma concentration ([3]; CD-1 mice, IP 20 mg/kg, 0 min): BQL
Plasma concentration, Mean ([3]; CD-1 mice, PO 50 mg/kg, 0 min): BQL
Plasma concentration ([3]; CD-1 mice, PO 50 mg/kg, 0 min): BQL
adverse effects during PK study ([3]; IV 5, IP 20, PO 50 mg/kg): No obvious adverse effects
dose normalized AUClast by route of administration ([3]; Method of Bailer): no different
Plasma concentration, Mean [3, 6]: BQL
Plasma concentration [3, 6]: BQL
Plasma concentration ([3]; male CD1 mice, IV 5 mg/kg, 1440 min, class symbol): BQL
AUC(0-inf) [3, 7]: 69500 ng·h/mL
AUC(0-t) [3, 7]: 23000 ng·h/mL
Cmax [3, 7]: 2460 ng/mL
Tmax [3, 7]: 0.5 h
bioavailability [3, 7]: 78%
half-life [3, 7]: 52.8 h
k el [3, 7]: 3.65e-06 s⁻¹
AUC(0-inf) [3, 8]: 9770 ng·h/mL
AUC(0-t) [3, 8]: 6580 ng·h/mL
Cmax [3, 8]: 1510 ng/mL
Vd [3, 8]: 10 L/kg
half-life [3, 8]: 19 h
k el [3, 8]: 1.01e-05 s⁻¹
concentration at 5 min [3, 9]: 1620 ng/mL
concentration at 15 min [3, 9]: 1500 ng/mL
concentration at 30 min [3, 9]: 1530 ng/mL
concentration at 60 min [3, 9]: 793 ng/mL
concentration at 120 min [3, 9]: 670 ng/mL
concentration at 240 min [3, 9]: 504 ng/mL
concentration at 360 min [3, 9]: 256 ng/mL
concentration at 5 min [3, 10]: 1450 ng/mL
concentration at 15 min [3, 10]: 1510 ng/mL
concentration at 30 min [3, 10]: 1260 ng/mL
concentration at 60 min [3, 10]: 800 ng/mL
concentration at 120 min [3, 10]: 669 ng/mL
concentration at 240 min [3, 10]: 421 ng/mL
concentration at 360 min [3, 10]: 238 ng/mL
concentration at 480 min [3, 10]: 190 ng/mL
concentration at 1440 min [3, 10]: 116 ng/mL
AUC(0-inf) [3, 11]: 22800 ng·h/mL
AUC(0-t) [3, 11]: 15100 ng·h/mL
Cmax [3, 11]: 1830 ng/mL
Tmax [3, 11]: 0.25 h
bioavailability [3, 11]: 23%
half-life [3, 11]: 12.7 h
k el [3, 11]: 1.51e-05 s⁻¹
concentration at 30 min [3, 12]: 1460 ng/mL
concentration at 60 min [3, 12]: 1560 ng/mL
concentration at 120 min [3, 12]: 1650 ng/mL
concentration at 360 min [3, 12]: 318 ng/mL
concentration at 15 min [3, 13]: 1830 ng/mL
concentration at 30 min [3, 13]: 1280 ng/mL
concentration at 60 min [3, 13]: 1430 ng/mL
concentration at 120 min [3, 13]: 1220 ng/mL
concentration at 240 min [3, 13]: 798 ng/mL
concentration at 360 min [3, 13]: 473 ng/mL
concentration at 480 min [3, 13]: 589 ng/mL
concentration at 1440 min [3, 13]: 425 ng/mL
concentration at 240 min ([3]; male, mouse, in vivo, CD-1 mice, PO 50 mg/kg, 240 min, individual (Groups A-D), read-out: Plasma concentration): 366 ng/mL
concentration at 480 min ([3]; male, mouse, in vivo, CD-1 mice, PO 50 mg/kg, 480 min, individual (Groups A-D), read-out: Plasma concentration): 376 ng/mL
concentration at 5 min ([3]; mouse, in vivo, CD-1 mice, IP 20 mg/kg, 5 min, individual (Groups A-D), read-out: Plasma concentration): 1060 ng/mL
bioavailability ([3]; mouse, plasma, intraperitoneal, CD1 mice, IP 20 mg/kg vs IV 5 mg/kg, read-out: IP bioavailability): 87%
bioavailability ([3]; mouse, plasma, CD1 mice, PO 50 mg/kg vs IV 5 mg/kg, read-out: oral bioavailability): 23%
